Test results reported in patent EP3319959B1, “HETERO-HALO INHIBITORS OF HISTONE DEACETYLASE” (Alkermes, Inc., priority 2015, dated 2017).

system: recombinant human HDACs; assay: HDAC enzymatic assay (LabChip capillary electrophoresis); assay type: biochemical; details: 5 nM HDAC enzyme, 1 uM substrate, 5 hours pre-incubation, 17 hours reaction at 25°C; isoform not given
Method: All recombinant human HDACs were purchased from BPS Bioscience. The substrate, FAM-TSRHK(AC)KL-CONH, was synthesized at NanoSyn. Final assay reactions contained 100 mM HEPES (pH 7.5), 50 mM KCl, 0.1% BSA, 0.01% Triton X-100, 1% DMSO, 1 uM substrate and 5 nM HDAC enzyme. Enzyme and compounds were pre-incubated at 25°C for 5 hours and reactions were initiated by addition of substrate. 10 uL reactions were incubated for 17 hours at 25°C and terminated by the addition of 40 uL of buffer containing 100 mM HEPES (pH 7.5), 0.1% BSA, 0.01% Triton X-100 and 0.05% SDS. Substrate and product peptides present in each sample were separated electrophoretically using the LabChip 3000 capillary electrophoresis instrument. Change in the relative fluorescence intensity of the substrate and product peaks reflects enzyme activity. Reaction progress was determined as the product to sum ratio (PSR): P/(S+P), where P is the peak height of the product peptide and S is the peak height of the substrate peptide. Reactions were performed in duplicate at 12 concentrations, (3X serial dilutions starting at 30 uM). IC50 values were calculated using a 4 Parameter Logistic Model.

| Compound | IC50 [µM] |
| --- | --- |
| CN1CCn2cc(C(=O)Nc3nc(-c4ccccc4)ccc3N)nc2C1 [Compound 206] | 0.5 to 5 |
| COCc1ccc2c(c1)CN(C(=O)Nc1nc(-c3cccnc3)ccc1N)C2 [Compound 393] | 0.5 to 5 |
| CN1CCN(Cc2cccc3c2CN(C(=O)Nc2nc(-c4ccc(F)cc4)ccc2N)C3)CC1 [Compound 178] | > 5 |
| Nc1ccc(-c2ccco2)nc1NC(=O)N1CC2CN(C3COC3)CC2C1 (centres unmarked) [Compound 182] | > 5 |
| Nc1ccc(-c2cccnc2)nc1NC(=O)N1CCCC1 [Compound 221] | > 5 |
| Nc1ccc(-c2cccnc2)nc1NC(=O)N1Cc2cc(F)cnc2C1 [Compound 218] | > 5 |
| Nc1ccc(-c2ccco2)nc1NC(=O)C1CN(Cc2ccccc2)C1 [Compound 198] | > 5 |
| Nc1ccc(-c2ccccc2)nc1NC(=O)c1cn2c(n1)CNCC2 [Compound 208] | 0.5 to 5 |
| CC(=O)N1CCN(C(=O)Nc2nn(-c3ccccc3)cc2N)CC1 [Compound 360] | > 5 |
| CC(=O)N1CCC(C(=O)Nc2nc(-c3ccccc3)ccc2N)CC1 [Compound 380] | > 5 |
| COc1ccc(-c2ccc(N)c(NC(=O)N3Cc4ccncc4C3)n2)cc1 [Compound 173] | 0.5 to 5 |
| Nc1ccc(-c2ccc(F)cc2)nc1NC(=O)C1CC2CCC(C1)O2 (centres unmarked) [Compound 406] | > 5 |
| CC(O)c1ccc2c(c1)CN(C(=O)Nc1nc(-c3ccc(F)cc3)ccc1N)C2 (centres unmarked) [Compound 394] | 0.1 to 0.5 |
| Nc1ccc(-c2ccccc2)nc1NC(=O)N1CCn2ccnc2C1 [Compound 197] | > 5 |
| Nc1ccc(-c2ccco2)nc1NC(=O)N1CC2CN(CCF)CC2C1 (centres unmarked) [Compound 174] | > 5 |
| Nc1ccc(-c2ccc(F)cc2)nc1NC(=O)N1Cc2cc(N3CCC3)cnc2C1 [Compound 157] | 0.1 to 0.5 |
| COC1CCN(Cc2ccc3c(c2)CN(C(=O)Nc2nc(-c4ccc(F)cc4)ccc2N)C3)C1 (centres unmarked) [Compound 363] | 0.1 to 0.5 |
| Cn1cc(CN2CCC3(CC2)CCN(C(=O)Nc2nc(-c4cccnc4)ccc2N)C3)cn1 [Compound 215] | > 5 |
| Cc1cc2c(cn1)CN(C(=O)Nc1nc(-c3ccc(F)cc3)ccc1N)C2 [Compound 151] | 0.1 to 0.5 |
| COc1cccc(CN2CCCC3(CCN(C(=O)Nc4nn(-c5ccc(F)cc5)cc4N)C3)C2)c1 (centres unmarked) [Compound 124] | > 5 |
| CN1CC(CN2CC3CN(C(=O)Nc4nc(-c5ccc(F)cc5)ccc4N)CC3C2)C1 (centres unmarked) [Compound 256] | 0.5 to 5 |
| CC(=O)N1CCC(C(=O)Nc2nn(-c3ccccc3)cc2N)CC1 [Compound 358] | > 5 |
| Nc1ccc(-c2ccco2)nc1NC(=O)N1Cc2ccncc2C1 [Compound 372] | 0.5 to 5 |
| Nc1ccc(-c2cccs2)nc1NC(=O)N1Cc2ccc(CN3CCCC3)cc2C1 [Compound 410] | 0.1 to 0.5 |
| CN(C)Cc1ccc2c(c1)CN(C(=O)Nc1nc(-c3ccco3)ccc1N)C2 [Compound 365] | 0.1 to 0.5 |

| Compound | IC50 [µM] |
| --- | --- |
| Nc1ccc(-c2cccnc2)nc1NC(=O)N1CCC2(CCCNC2)C1 (centres unmarked) [Compound 171] | > 5 |
| Nc1ccc(-c2ccccc2)nc1NC(=O)N1CCn2cncc2C1 [Compound 212] | > 5 |
| CN1CCC2(CC1)CCN(C(=O)Nc1nc(-c3cccnc3)ccc1N)C2 [Compound 210] | > 5 |
| Nc1ccc(-c2ccc(F)cc2)nc1NC(=O)N1Cc2cnc(N3CCC3)cc2C1 [Compound 147] | 0.1 to 0.5 |
| CN1CCN(c2ccc3c(c2)CN(C(=O)Nc2nc(-c4ccc(F)cc4)ccc2N)C3)CC1 [Compound 374] | 0.1 to 0.5 |
| CN1CCN(c2cc3c(cn2)CN(C(=O)Nc2nc(-c4ccc(F)cc4)ccc2N)C3)CC1 [Compound 160] | 0.1 to 0.5 |
| CN1CCC(c2ccc3c(c2)CN(C(=O)Nc2nn(-c4ccccc4)cc2N)C3)CC1 [Compound 383] | 0.1 to 0.5 |
| CC(=O)N1CCN(CC(=O)Nc2nc(-c3ccccc3)ccc2N)CC1 [Compound 196] | > 5 |
| Nc1ccc(-c2ccccc2)nc1NC(=O)C1CCN(Cc2cccnc2)CC1 [Compound 377] | > 5 |
| Cc1cnc(C(=O)Nc2nn(-c3ccccc3)cc2N)s1 [Compound 126] | 0.5 to 5 |
| Nc1cn(-c2ccccc2)nc1NC(=O)N1CCN(C2COC2)CC1 [Compound 356] | > 5 |
| CN(C)Cc1ccc2c(c1)CN(C(=O)Nc1nc(-c3ccc(Cl)s3)ccc1N)C2 [Compound 401] | > 5 |
| Nc1ccc(-n2cccn2)nc1NC(=O)N1CC2CN(CCF)CC2C1 (centres unmarked) [Compound 167] | > 5 |
| COCc1ccc2c(c1)CN(C(=O)Nc1nc(-c3ccc(F)cc3)ccc1N)C2 [Compound 396] | 0.1 to 0.5 |
| Nc1ccc(-c2ccc(F)cc2)nc1NC(=O)N1CCN(C(=O)[C@@H]2C[C@H]2c2ccccc2)CC1 (stereo in doubt) [Compound 225] | 0.5 to 5 |
| Cc1cnc(C(=O)Nc2nc(-c3ccc(F)cc3)ccc2N)s1 [Compound 226] | 0.1 to 0.5 |
| Nc1cnc(-c2ccc(F)cc2)cc1NC(=O)N1Cc2cnc(N3CCC3)cc2C1 [Compound 254] | 0.5 to 5 |
| CN1CCC(COC(=O)Nc2nc(-c3cccnc3)ccc2N)CC1 [Compound 375] | > 5 |
| CN(C)Cc1ccc2c(c1)CN(C(=O)Nc1nn(-c3ccccc3)cc1N)C2 [Compound 351] | 0.1 to 0.5 |
| Cn1cc(CN2CCCC3(CCN(C(=O)Nc4nc(-c5ccc(F)cc5)ccc4N)C3)C2)cn1 (centres unmarked) [Compound 223] | > 5 |
| Nc1cn(-c2ccccc2)nc1NC(=O)N1CC2CCCC2C1 (centres unmarked) [Compound 384] | > 5 |
| Nc1ccc(-c2ccccc2)nc1NC(=O)C1CCN(Cc2ccccc2F)CC1 [Compound 379] | > 5 |
| Nc1ccc(-c2ccc(F)cc2)nc1NC(=O)N1Cc2cnc(C3CC3)cc2C1 [Compound 255] | 0.1 to 0.5 |
| Nc1ccc(-c2ccc(OC(F)F)cc2)nc1NC(=O)N1Cc2nccnc2C1 [Compound 228] | 0.5 to 5 |
| Nc1ccc(-n2cccn2)nc1NC(=O)C1CCN(Cc2ccccc2F)CC1 [Compound 370] | > 5 |

Next, values leading:

| IC50 [µM] | Compound |
| --- | --- |
| 0.5 to 5 | Nc1ccc(-c2ccc(F)cc2)nc1NC(=O)N1CC2CN(Cc3ccccc3F)CC2C1 (centres unmarked) [Compound 176] |
| 0.1 to 0.5 | Nc1ccc(-c2ccc(F)cc2)nc1NC(=O)N1Cc2cnc(C3CCOCC3)cc2C1 [Compound 240] |
| 0.5 to 5 | Nc1ccc(-c2ccc(F)cc2)nc1NC(=O)N1C[C@@H]2[C@@H](CO)[C@@H]2C1 [Compound 238] |
| 0.5 to 5 | CN1CC(N2CC3CN(C(=O)Nc4nc(-c5ccc(F)cc5)ccc4N)CC3C2)C1 (centres unmarked) [Compound 152] |
| > 5 | CN1CC(CC(=O)Nc2nc(-c3ccc(F)cc3)ccc2N)C1 [Compound 376] |
| 0.5 to 5 | CN(C1COC1)C1CC2CN(C(=O)Nc3nc(-c4ccc(F)cc4)ccc3N)CC2C1 (centres unmarked) [Compound 248] |
| > 5 | Nc1ccc(-c2ccc(F)cc2)nc1NC(=O)[C@H]1[C@@H]2CN(C3COC3)C[C@@H]21 (stereo in doubt) [Compound 239] |
| > 5 | Nc1ccc(-c2ccccc2)nc1NC(=O)N1CC2CN(C3COC3)CC2C1 (centres unmarked) [Compound 199] |
| 0.5 to 5 | CN1CC(Cn2ncc3c2CN(C(=O)Nc2nc(-c4ccc(F)cc4)ccc2N)C3)C1 [Compound 244] |
| > 5 | Nc1ccc(-c2ccc(F)cc2)nc1NC(=O)N1CC2CN(C3CCOCC3)CC2C1 (centres unmarked) [Compound 236] |
| > 5 | Nc1ccc(-c2ccc(F)cc2)nc1NC(=O)N1CC2CN(C3COC3)CC2C1 (centres unmarked) [Compound 203] |
| 0.5 to 5 | Nc1ccc(-c2ccc(F)cc2)nc1NC(=O)N1CC2CC(N3CCC3)CC2C1 (centres unmarked) [Compound 143] |
| > 5 | CN1CC(N2C[C@@H]3[C@H](C2)[C@H]3C(=O)Nc2nc(-c3ccc(F)cc3)ccc2N)C1 (stereo in doubt) [Compound 241] |
| > 5 | CN(C)[C@H]1[C@@H]2CN(C(=O)Nc3nc(-c4ccc(F)cc4)ccc3N)C[C@@H]21 [Compound 242] |
| > 5 | CN(C1CCOC1)C1CC2CN(C(=O)Nc3nc(-c4ccc(F)cc4)ccc3N)CC2C1 (centres unmarked) [Compound 237] |
| 0.5 to 5 | Nc1ccc(-c2ccc(F)cc2)nc1NC(=O)N1CC2CC(N3CC(F)C3)CC2C1 (centres unmarked) [Compound 188] |
| 0.1 to 0.5 | Nc1ccc(-c2ccc(F)cc2)nc1NC(=O)N1Cc2cccc(F)c2C1 [Compound 259] |
| 0.5 to 5 | Nc1ccc(-c2ccc(F)cc2)nc1NC(=O)N1CCC(C(F)(F)F)C1 (centres unmarked) [Compound 390] |
| > 5 | CN1CC(C(=O)Nc2nc(-c3ccc(F)cc3)ccc2N)C1 [Compound 204] |
| > 5 | CN1CC2CN(C(=O)Nc3nc(-c4ccc(F)cc4)ccc3N)CC2C1 (centres unmarked) [Compound 201] |
| > 5 | Nc1ccc(-c2ccc(F)cc2)nc1NC(=O)[C@H]1[C@@H]2CN(C3CCOCC3)C[C@@H]21 (stereo in doubt) [Compound 264] |
| > 5 | CN(C1COC1)[C@H]1[C@@H]2CN(C(=O)Nc3nc(-c4ccc(F)cc4)ccc3N)C[C@@H]21 [Compound 262] |
| 0.5 to 5 | CN1CCC(c2ccc3c(c2)CN(C(=O)Nc2nc(-c4ccc(F)cc4)ccc2N)C3)CC1 [Compound 387] |
| 0.5 to 5 | Nc1ccc(-c2ccc(F)cc2)nc1NC(=O)N1CC2CC(NC3COC3)CC2C1 (centres unmarked) [Compound 172] |
| > 5 | Nc1ccc(-c2ccc(F)cc2)nc1NC(=O)N1CC2CC(N3CCOCC3)CC2C1 (centres unmarked) [Compound 181] |
| 0.1 to 0.5 | CN1CC(n2cc3c(n2)CN(C(=O)Nc2nc(-c4ccc(F)cc4)ccc2N)C3)C1 [Compound 247] |
| 0.5 to 5 | Nc1ccc(-c2ccc(F)cc2)nc1NC(=O)N1CCC(F)(F)C1 [Compound 364] |
